The values below come from patent US11446378B2, “Inhibitors of ephrin B1 for tumor treatment” (SANFORD HEALTH, priority 2017, dated 2022).

The experiment deals with PC12 cells. The experiment is described as follows: PC12 neurite outgrowth assay (β-III tubulin quantification by CX7). The class given is cell-based, rat. The protocol: To test our hypothesis that tumor released exosomes induce neo-neurogenesis, we utilized PC12 cells, a rat pheochromocytoma cell line, as an in vitro screen. When stimulated with NGF (100 ng/ml), PC12 cells differentiate into neuron-like cells and extend neurites. We collected 10 ml of blood along with matched tumor tissue from three head and neck cancer patients (patient samples Pt1, Pt2, Pt3). We similarly collected blood from 3 healthy volunteers (Nl1, Nl2, Nl3) as well as adult tonsil tissue (TL). The tonsil was chosen as control tissue since the majority of HPV+ OPSCCs arise in the tonsil. Exosomes were purified, quantified by BCA protein assay and further validated by western blot analysis for the exosome markers CD9 and CD81 (FIG. 1E). To test whether they harbor neurite outgrowth activity, PC12 cells were treated with 3 μg exosomes, fixed 48 hours later and immunostained for β-III tubulin. Neurite outgrowth was quantified using the CellInSight™ CX7 High Content Analysis Platform and the number of neurites compared. The exosome yield from patient Pt1 was low allowing for analysis of only one replicate while quantities from Pt2 and Pt3 were sufficient for technical replicates. […]
The CellInSight CX7 High Content Analysis Platform performs automated cellular imaging for quantitative microscopy which was utilized to quantify neurite outgrowth. […]

“NGF: recombinant nerve growth factor, positive control for PC12 neurite outgrowth”: the “neurite outgrowth (number of β-III tubulin positive neurites)” value (PC12 cells fixed 48 hours after treatment, 3 μg exosomes or NGF 100 ng/ml) is “robustly”. Further, under “PC12 cells, 24 hour stimulation, recombinant NGF 100 ng/ml set at 100%”, the “neurite outgrowth (total number of beta-III tubulin positive neurites per well)” value is on record as “robust neurite outgrowth”.
